# Data taken from patent US10681909B2, “Herbicidal triazoles” (FMC Corporation, priority 2014, dated 2020).
# Tests used:
# [1] = test system: foxtail, giant; assay: Test A preemergence; assay type: in vivo, Setaria faberii; conditions: 0 to 100 scale (0 no effect, 100 complete control)
# Procedure, shortened: (§1)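 For preemergence, seeds were sown in a loam soil-sand blend and given a directed soil spray of test chemical in a non-phytotoxic solvent mixture with surfactant. For postemergence, plants in pots of the same blend were sprayed with the same formulation at the one- to two-leaf stage, 2 to 10 cm tall.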
# [2] = test system: pigweed; assay: Test A preemergence; assay type: in vivo, Amaranthus retroflexus; conditions: 0 to 100 scale (0 no effect, 100 complete control)
# Procedure, shortened: as §1
# [3] = test system: foxtail, giant; assay: Test A postemergence; assay type: in vivo, Setaria faberii; conditions: 0 to 100 scale (0 no effect, 100 complete control), approx. 10 d
# Procedure, shortened: as §1
# [4] = test system: pigweed; assay: Test A postemergence; assay type: in vivo, Amaranthus retroflexus; conditions: 0 to 100 scale (0 no effect, 100 complete control), approx. 10 d
# Procedure, shortened: as §1
# [5] = test system: ducksalad; assay: Test B flooded paddy test; assay type: in vivo, Heteranthera limosa; conditions: 250 g ai/ha, applied to paddy water at 2-leaf stage, visual rating after 13 to 15 d, scale 0 (no effect) to 100 (complete control)
# Procedure, shortened: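 Pots were flooded to 3 cm above the soil at treatment, and compounds were applied directly into the paddy water. That depth was held throughout. After 13 to 15 d in a greenhouse, plants were rated visually against untreated controls.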
# [6] = test system: galium; assay: Test C postemergence; assay type: in vivo, Galium aparine
# Excerpt: (§2) Seeds of plant species selected from blackgrass (Alopecurus myosuroides), ryegrass, Italian (Italian ryegrass, Lolium multiflorum), wheat (winter wheat, Triticum aestivum), galium (catchweed bedstraw, Galium aparine), corn (Zea mays), crabgrass, large (large crabgrass, Digitaria sanguinalis), foxtail, giant, (giant foxtail, Setaria faberii), johnsongrass (Sorghum halepense), lambsquarters (Chenopodium album), morningglory (Ipomoea coccinea), nutsedge, yellow (yellow nutsedge, Cyperus esculentus), pigweed (Amaranthus retroflexus), ragweed (common ragweed, Ambrosia elatior), soybean (Glycine max), barnyardgrass (Echinochloa crus-galli), oilseed rape (Brassica napus), waterhemp (common waterhemp, Amaranthus rudis), and velvetleaf (Abutilon theophrasti) were planted into a blend of loam soil and sand and treated preemergence with test chemicals formulated in a non-phytotoxic solvent mixture which included a surfactant. At the same time, plants selected from these crop and weed species and also chickweed (common chickweed, Stellaria media), oat, wild (wild oat, Avena fatua), and kochia (Kochia scoparia), were planted in pots containing Sunshine Redi-Earth® planting medium comprising spaghnum peat moss, vermiculite, starter nutrients and dolomitic limestone and treated with postemergence applications of test chemicals formulated in the same manner. Plants ranged in height from 2 to 18 cm (1- to 4-leaf stage) for postemergence treatments. […] A dash (-) response means no test result.
# [7] = test system: corn; assay: Test C postemergence; assay type: in vivo, Zea mays
# Excerpt: as §2
# [8] = test system: crabgrass, large; assay: Test C postemergence; assay type: in vivo, Digitaria sanguinalis
# Excerpt: as §2
# [9] = test system: johnsongrass; assay: Test C postemergence; assay type: in vivo, Sorghum halepense
# Excerpt: as §2
# [10] = test system: ragweed; assay: Test C postemergence; assay type: in vivo, Ambrosia elatior
# Excerpt: as §2
# [11] = test system: soybean; assay: Test C postemergence; assay type: in vivo, Glycine max
# Excerpt: as §2
# [12] = test system: barnyardgrass; assay: Test C postemergence; assay type: in vivo, Echinochloa crus-galli
# Excerpt: as §2
# [13] = test system: velvetleaf; assay: Test C postemergence; assay type: in vivo, Abutilon theophrasti
# Excerpt: as §2
SMILES,Plant response rating (scale of 0 to 100 where 0 is no effect and 100 is complete control) ([6]; 31 g ai/ha),Plant response rating (scale of 0 to 100 where 0 is no effect and 100 is complete control) ([6]; 62 g ai/ha),Plant response rating (scale of 0 to 100 where 0 is no effect and 100 is complete control) ([6]; 125 g ai/ha),Plant response rating (scale of 0 to 100 where 0 is no effect and 100 is complete control) ([6]; 250 g ai/ha),Plant response rating (scale of 0 to 100 where 0 is no effect and 100 is complete control) ([7]; 31 g ai/ha),Plant response rating (scale of 0 to 100 where 0 is no effect and 100 is complete control) ([7]; 62 g ai/ha),Plant response rating (scale of 0 to 100 where 0 is no effect and 100 is complete control) ([7]; 125 g ai/ha),Plant response rating (scale of 0 to 100 where 0 is no effect and 100 is complete control) ([7]; 250 g ai/ha),Plant response rating (scale of 0 to 100 where 0 is no effect and 100 is complete control) ([8]; 31 g ai/ha),Plant response rating (scale of 0 to 100 where 0 is no effect and 100 is complete control) ([8]; 62 g ai/ha),Plant response rating (scale of 0 to 100 where 0 is no effect and 100 is complete control) ([8]; 125 g ai/ha),Plant response rating (scale of 0 to 100 where 0 is no effect and 100 is complete control) ([8]; 250 g ai/ha),Plant response rating (scale of 0 to 100 where 0 is no effect and 100 is complete control) ([9]; 62 g ai/ha),Plant response rating (scale of 0 to 100 where 0 is no effect and 100 is complete control) ([9]; 125 g ai/ha),Plant response rating (scale of 0 to 100 where 0 is no effect and 100 is complete control) ([9]; 250 g ai/ha),Plant response rating (scale of 0 to 100 where 0 is no effect and 100 is complete control) ([10]; 31 g ai/ha),Plant response rating (scale of 0 to 100 where 0 is no effect and 100 is complete control) ([10]; 62 g ai/ha),Plant response rating (scale of 0 to 100 where 0 is no effect and 100 is complete control) ([10]; 250 g ai/ha),Plant response rating (scale of 0 to 100 where 0 is no effect and 100 is complete control) ([11]; 31 g ai/ha),Plant response rating (scale of 0 to 100 where 0 is no effect and 100 is complete control) ([11]; 62 g ai/ha),also measured
COc1nc(-c2ccc(Cl)cc2)nn1Cc1ccnc(C(F)(F)F)c1 [Compound 28],85,90,90,95,5,10,15,15,10,10,10,30,5,10,85,25,25,75,45,70,"Plant response rating, Foxtail, Giant ([1]; 125 g ai/ha): 100; Plant response rating, Foxtail, Giant ([1]; 500 g ai/ha, approx. 10 d): 100; Plant response rating, Pigweed ([2]; 125 g ai/ha): 100; Plant response rating, Pigweed ([2]; 500 g ai/ha, approx. 10 d): 100; Plant response rating, Foxtail, Giant ([3]; 125 g ai/ha): 70; Plant response rating, Foxtail, Giant ([3]; 500 g ai/ha): 90; Plant response rating, Pigweed ([4]; 125 g ai/ha): 100; Plant response rating, Pigweed ([4]; 500 g ai/ha): 100; Plant response rating, Ducksalad, Flood [5]: 90; Plant response rating (scale of 0 to 100 where 0 is no effect and 100 is complete control) ([10]; 125 g ai/ha): 75; Plant response rating (scale of 0 to 100 where 0 is no effect and 100 is complete control) ([11]; 125 g ai/ha): 55; Plant response rating (scale of 0 to 100 where 0 is no effect and 100 is complete control) ([11]; 250 g ai/ha): 60; Plant response rating (scale of 0 to 100 where 0 is no effect and 100 is complete control) ([12]; 31 g ai/ha): 15; Plant response rating (scale of 0 to 100 where 0 is no effect and 100 is complete control) ([12]; 62 g ai/ha): 15; Plant response rating (scale of 0 to 100 where 0 is no effect and 100 is complete control) ([12]; 125 g ai/ha): 15; Plant response rating (scale of 0 to 100 where 0 is no effect and 100 is complete control) ([12]; 250 g ai/ha): 25; Plant response rating (scale of 0 to 100 where 0 is no effect and 100 is complete control) ([13]; 31 g ai/ha): 60; Plant response rating (scale of 0 to 100 where 0 is no effect and 100 is complete control) ([13]; 62 g ai/ha): 60; Plant response rating (scale of 0 to 100 where 0 is no effect and 100 is complete control) ([13]; 125 g ai/ha): 65; Plant response rating (scale of 0 to 100 where 0 is no effect and 100 is complete control) ([13]; 250 g ai/ha): 80"
"CCCc1nc(-c2ccc(F)cc2)nn1Cc1ccnc(C(F)(F)F)c1 [Compound 6, 4-[[3-(4-fluorophenyl)-5-propyl-1H-1,2,4-triazol-1-yl]methyl]-2-(trifluoromethyl)pyridine]",80,80,90,90,10,15,20,50,10,15,25,65,10,15,35,75,75,80,35,40,"pest or weed control at 125 g/ha ([1]; Setaria faberi, pre-emergence, 240 h, 125 g ai/ha, read-out: Plant response rating, Foxtail, Giant): 100%; pest or weed control at 500 g/ha ([1]; Setaria faberi, pre-emergence, 240 h, 500 g ai/ha, approx. 10 d, read-out: Plant response rating, Foxtail, Giant): 100%; pest or weed control at 125 g/ha ([2]; Amaranthus retroflexus, pre-emergence, 240 h, 125 g ai/ha, read-out: Plant response rating, Pigweed): 100%; pest or weed control at 500 g/ha ([2]; Amaranthus retroflexus, pre-emergence, 240 h, 500 g ai/ha, approx. 10 d, read-out: Plant response rating, Pigweed): 100%; pest or weed control at 125 g/ha ([3]; Setaria faberi, post-emergence, 240 h, 125 g ai/ha, read-out: Plant response rating, Foxtail, Giant): 90%; pest or weed control at 500 g/ha ([3]; Setaria faberi, post-emergence, 240 h, 500 g ai/ha, read-out: Plant response rating, Foxtail, Giant): 90%; pest or weed control at 125 g/ha ([4]; Amaranthus retroflexus, post-emergence, 240 h, 125 g ai/ha, read-out: Plant response rating, Pigweed): 50%; pest or weed control at 500 g/ha ([4]; Amaranthus retroflexus, post-emergence, 240 h, 500 g ai/ha, read-out: Plant response rating, Pigweed): 100%; pest or weed control at 250 g/ha ([5]; Heteranthera limosa, 360 h, read-out: Plant response rating, Ducksalad, Flood): 70%; Plant response rating (scale of 0 to 100 where 0 is no effect and 100 is complete control) ([9]; 31 g ai/ha): 10; Plant response rating (scale of 0 to 100 where 0 is no effect and 100 is complete control) ([11]; 125 g ai/ha): 60; Plant response rating (scale of 0 to 100 where 0 is no effect and 100 is complete control) ([12]; 31 g ai/ha): 20; Plant response rating (scale of 0 to 100 where 0 is no effect and 100 is complete control) ([12]; 62 g ai/ha): 20; Plant response rating (scale of 0 to 100 where 0 is no effect and 100 is complete control) ([12]; 125 g ai/ha): 25; Plant response rating (scale of 0 to 100 where 0 is no effect and 100 is complete control) ([12]; 250 g ai/ha): 40; Plant response rating (scale of 0 to 100 where 0 is no effect and 100 is complete control) ([13]; 31 g ai/ha): 55; Plant response rating (scale of 0 to 100 where 0 is no effect and 100 is complete control) ([13]; 62 g ai/ha): 55; Plant response rating (scale of 0 to 100 where 0 is no effect and 100 is complete control) ([13]; 125 g ai/ha): 55; Plant response rating (scale of 0 to 100 where 0 is no effect and 100 is complete control) ([13]; 250 g ai/ha): 55"
